Read-outs that look alike come from different tables or passages of the source.

A short description of the data set: Single dose, open-label food effect pharmacokinetic trial of oral capsules in healthy subjects. The class given is in vivo, human. As to conditions: for bioavailability / Tmax: human, plasma, po; for bioavailability: healthy subjects; for Tmax: oral administration. The protocol:
A single centre, single dose, open-label trial in healthy subjects was conducted. Study drug treatments were as follows: • Treatment A: Compound No. 1, in capsule form (25-400 mg) administered without food; • Treatment B: Compound No. 1, in capsule form (400-800 mg) administered with a normal fat meal; • Treatment C: Compound No. 1, in capsule form (400-1600 mg) administered with a high-fat meal.
In treatment A, subjects fasted overnight with water permitted up to one hour before dosing. One or more 25 mg or 100 mg capsules of Compound No. 1 were administered with 240 mL room temperature water. Subjects continued to fast for approximately 4 hours until lunch. All meals and snacks provided during the study were low fat and standardized. Additional water was allowed ad lib but there was no caffeine, smoking or alcohol and no vigorous exercise.
In treatments B and C, subjects consumed breakfast the day of the study. Breakfast commenced approximately 30 minutes prior to dosing with dosing occurring within 10 minutes after finishing the meal. One or more 25 mg or 100 mg capsules containing Compound No. 1 were administered to the subjects with 240 mL room temperature water. After dosing, subjects consumed no food until lunch and otherwise followed the same protocol as in treatment A.
In treatment B, a normal fat meal consisted of: toast with 1 pat of butter; a banana; 2% milk; apple juice; and Honey Nut Cheerios®. In treatment C, a high fat meal consisted of: 2 slices of buttered toast, 2 eggs fried in butter, 2 slices of bacon, 4 oz hash brown potatoes and 8 oz of whole milk.
Subjects received one or two doses. There was a washout period of at least 14 days between study drug administrations in those subjects dosed more than once. […] The actual dosing and sample times were recorded on a Case Report Form. At least 15 blood samples were collected during the period from pre-dose through 48 hours post-dose; in most subjects, additional samples were obtained at 60, 72, 120, 168 and 336 hours post-dose. Concentrations of Compound No. 1 were determined in plasma by BASi Northwest Laboratories Inc. (McMinnville, Oreg.) by LC-MS/MS. The lower limit of quantitation for Compound No. 1 was 0.05 ng/mL. Sample values below the lower limit of quantitation were reported as “<0.05 ng/mL”.
Pharmacokinetic parameters were obtained using compartmental methods. Relative exposure was quantified through the term relative bioavailability. In that none of the subjects received an intravenous dose of Compound No. 1, absolute bioavailability could not be determined. […] There were no protocol deviations that confounded the pharmacokinetic analyses.
Statistical analyses were performed using NONMEM version 5. Study results were not corrected for drug potency.

As to `O=C(CC(c1ccccc1)c1ccccc1)N1CCN(C(c2ccccc2)c2ccccc2)CC1` [Compound No. 1, 1-(3,3-diphenylpropionyl)-4-benzhydryl piperazine], the “bioavailability, normal fat meal vs high fat meal (individual plasma concentrations, FIGS. 3 and 4)” value (400 mg and 800 mg dosage) is “increased bioavailability”. The same compound registered a decrease of bioavailability (fasting compared to a normal fat meal) of 32%. Besides, the “increase of bioavailability of capsules” value (high fat meal compared to a normal fat meal) came out at 460%. Also, the bioavailability (typical value, read-out: Relative bioavailability, 25-mg capsules (relative to 100-mg capsules)) came to 148% and the bioavailability (oral capsules, typical value of compartmental NONMEM analysis, read-out: Relative bioavailability, Fasted (relative to normal-fat meal)) is 68.2%. Besides, the Tmax reads like this: (subjects fasted) under 2 h; (subjects fed a high fat meal) 4 to 5 h; (subjects fed a normal fat meal) 2 to 5 h.

These data come from patent US8362021B2, “Method for increasing the bioavailability of benzhydryl piperazine containing compounds” (Zalicus Pharmaceuticals Ltd., priority 2006, dated 2013).
